Measured values from PubChem BioAssay (NCI).
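Dose response: 5 concentrations. Exposure: 48 h. Format: 96-well plates. Endpoint: linear interpolation; highest concentration if not reached. TGI denotes the concentration required for complete inhibition of growth.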

Columns and labels:
Experiment in all cases: NCI-60 cell line screen, 48 h
[1] = tested on: A549 NSCLC
[2] = tested on: ACHN renal
[3] = tested on: CCRF-CEM leukemia
[4] = tested on: COLO 205 colon
[5] = tested on: DLD-1 colon
[6] = tested on: HCC-2998 colon
[7] = tested on: HCT-116 colon
[8] = tested on: HL-60(TB) leukemia
[9] = tested on: HOP-18 NSCLC
[10] = tested on: HOP-62 NSCLC
[11] = tested on: HOP-92 NSCLC
[12] = tested on: HT29 colon
[13] = tested on: IGROV1 ovarian
[14] = tested on: K-562 leukemia
[15] = tested on: KM12 colon
[16] = tested on: LXFL 529 NSCLC
[17] = tested on: M19-MEL melanoma
[18] = tested on: MALME-3M melanoma
[19] = tested on: MOLT-4 leukemia
[20] = tested on: NCI-H226 lung
[21] = tested on: NCI-H23 lung
[22] = tested on: NCI-H460 lung
[23] = tested on: NCI-H522 lung
[24] = tested on: OVCAR-3 ovarian
[25] = tested on: OVCAR-5 ovarian
[26] = tested on: OVCAR-8 ovarian
[27] = tested on: RPMI-8226 leukemia
[28] = tested on: SF-268 CNS
[29] = tested on: SF-295 CNS
[30] = tested on: SF-539 CNS
[31] = tested on: SK-MEL-2 melanoma
[32] = tested on: SK-MEL-28 melanoma
[33] = tested on: SK-MEL-5 melanoma
[34] = tested on: SK-OV-3 ovarian
[35] = tested on: SNB-19 CNS
[36] = tested on: SNB-75 CNS
[37] = tested on: SR leukemia
[38] = tested on: SW-620 colon
[39] = tested on: TK-10 renal
[40] = tested on: U251 CNS
[41] = tested on: UACC-257 melanoma
[42] = tested on: UACC-62 melanoma
[43] = tested on: UO-31 renal
[44] = tested on: 786-0 renal
[45] = tested on: A498 renal
[46] = tested on: CAKI-1 renal
[47] = tested on: DMS 114 small cell lung
[48] = tested on: DMS 273 small cell lung
[49] = tested on: EKVX NSCLC
[50] = tested on: HCT-15 colon
[51] = tested on: LOX IMVI melanoma
[52] = tested on: M14 melanoma
[53] = tested on: OVCAR-4 ovarian
[54] = tested on: SN12C renal
[55] = tested on: SNB-78 CNS
[56] = tested on: XF 498 CNS
[57] = tested on: KM20L2 colon
[58] = tested on: RXF 393 renal

## CC(=O)Nc1ccc(C(=O)NN2C(=O)C(Cl)C2/C=C/c2ccccc2)cc1 (stereo unspecified)
[1]
  TGI: > 100 µM
[2]
  TGI: > 100 µM
[3]
  TGI: > 100 µM
[4]
  TGI: > 100 µM
[5]
  TGI: > 100 µM
[6]
  TGI: > 100 µM
[7]
  TGI: > 100 µM
[8]
  TGI: > 100 µM
[9]
  TGI: > 100 µM
[10]
  TGI: > 100 µM
[11]
  TGI: > 100 µM
[12]
  TGI: > 100 µM
[13]
  TGI: > 100 µM
[14]
  TGI: > 100 µM
[15]
  TGI: > 100 µM
[16]
  TGI: > 100 µM
[17]
  TGI: > 100 µM
[18]
  TGI: > 100 µM
[19]
  TGI: > 100 µM
[20]
  TGI: > 100 µM
[21]
  TGI: > 100 µM
[22]
  TGI: > 100 µM
[23]
  TGI: > 100 µM
[24]
  TGI: > 100 µM
[25]
  TGI: > 100 µM
[26]
  TGI: > 100 µM
[27]
  TGI: > 100 µM
[28]
  TGI: > 100 µM
[29]
  TGI: > 100 µM
[30]
  TGI: > 100 µM
[31]
  TGI: > 100 µM
[32]
  TGI: > 100 µM
[33]
  TGI: > 100 µM
[34]
  TGI: > 100 µM
[35]
  TGI: > 100 µM
[36]
  TGI: > 100 µM
[37]
  TGI: > 100 µM
[38]
  TGI: > 100 µM
[39]
  TGI: > 100 µM
[40]
  TGI: > 100 µM
[41]
  TGI: > 100 µM
[42]
  TGI: > 100 µM
[43]
  TGI: > 100 µM

## Nc1c(-c2ccc(-c3c(N)[n+]([O-])c4ccccc4[n+]3[O-])cc2)[n+]([O-])c2ccccc2[n+]1[O-]
[44]
  TGI: 26.9 µM
[45]
  TGI: 35.5 µM
[1]
  TGI: 51.9 µM
[2]
  TGI: 31.1 µM
[46]
  TGI: 20.3 µM
[3]
  TGI: > 100 µM
[4]
  TGI: 29.6 µM
[5]
  TGI: 27.2 µM
[47]
  TGI: 16.3 µM
[48]
  TGI: 31.7 µM
[49]
  TGI: 79.9 µM
[6]
  TGI: 29.6 µM
[50]
  TGI: 15.4 µM
[8]
  TGI: > 100 µM
[9]
  TGI: 20.2 µM
[10]
  TGI: 32.3 µM
[11]
  TGI: > 100 µM
[12]
  TGI: 27.1 µM
[13]
  TGI: 47.5 µM
[14]
  TGI: > 100 µM
[15]
  TGI: 23.6 µM
[51]
  TGI: 25.6 µM
[16]
  TGI: 35.4 µM
[52]
  TGI: 35.1 µM
[17]
  TGI: 36.2 µM
[18]
  TGI: 8.57 µM
[19]
  TGI: > 100 µM
[20]
  TGI: 45 µM
[21]
  TGI: 21.1 µM
[22]
  TGI: 37.3 µM
[23]
  TGI: 3.65 µM
[24]
  TGI: 29.8 µM
[53]
  TGI: 35.9 µM
[25]
  TGI: 35.2 µM
[26]
  TGI: > 100 µM
[27]
  TGI: > 100 µM
[28]
  TGI: 66.2 µM
[29]
  TGI: 36.7 µM
[30]
  TGI: 18.2 µM
[31]
  TGI: 28.9 µM
[32]
  TGI: 20.9 µM
[33]
  TGI: 23.6 µM
[34]
  TGI: 52.7 µM
[54]
  TGI: 34.4 µM
[35]
  TGI: 29 µM
[36]
  TGI: 21.9 µM
[55]
  TGI: 62.3 µM
[38]
  TGI: 21.6 µM
[39]
  TGI: 32.1 µM
[40]
  TGI: 39.6 µM
[41]
  TGI: 13.8 µM
[42]
  TGI: 24.3 µM
[43]
  TGI: 32.6 µM
[56]
  TGI: 23.9 µM

## CCOC(=O)/C(C#N)=C/c1[nH]c(C)c(C)c1C
[44]
  TGI: > 100 µM
[45]
  TGI: > 100 µM
[1]
  TGI: > 100 µM
[46]
  TGI: > 100 µM
[3]
  TGI: > 100 µM
[4]
  TGI: > 100 µM
[5]
  TGI: > 100 µM
[47]
  TGI: > 100 µM
[48]
  TGI: > 100 µM
[49]
  TGI: > 100 µM
[6]
  TGI: > 100 µM
[7]
  TGI: > 100 µM
[50]
  TGI: > 100 µM
[8]
  TGI: > 100 µM
[9]
  TGI: > 100 µM
[10]
  TGI: > 100 µM
[11]
  TGI: > 100 µM
[12]
  TGI: > 100 µM
[13]
  TGI: > 100 µM
[14]
  TGI: > 100 µM
[15]
  TGI: > 100 µM
[57]
  TGI: > 100 µM
[51]
  TGI: > 100 µM
[16]
  TGI: > 100 µM
[52]
  TGI: > 100 µM
[17]
  TGI: > 100 µM
[18]
  TGI: > 100 µM
[19]
  TGI: > 100 µM
[20]
  TGI: > 100 µM
[21]
  TGI: > 100 µM
[22]
  TGI: > 100 µM
[23]
  TGI: > 100 µM
[24]
  TGI: > 100 µM
[53]
  TGI: > 100 µM
[25]
  TGI: > 100 µM
[26]
  TGI: > 100 µM
[27]
  TGI: > 100 µM
[58]
  TGI: > 100 µM
[28]
  TGI: > 100 µM
[29]
  TGI: > 100 µM
[30]
  TGI: > 100 µM
[31]
  TGI: > 100 µM
[33]
  TGI: > 100 µM
[34]
  TGI: > 100 µM
[54]
  TGI: > 100 µM
[35]
  TGI: > 100 µM
[36]
  TGI: > 100 µM
[55]
  TGI: > 100 µM
[38]
  TGI: > 100 µM
[39]
  TGI: > 100 µM
[40]
  TGI: > 100 µM
[41]
  TGI: > 100 µM
[42]
  TGI: > 100 µM
[43]
  TGI: > 100 µM
[56]
  TGI: > 100 µM

## COc1ccc2c(c1)[n+](=O)c(C(=O)C/C(=N\NC(=O)C[N+](C)(C)C)C(=O)Nc1cc(Cl)ccc1Cl)c(C)n2O
[44]
  TGI: > 100 µM
[45]
  TGI: > 100 µM
[1]
  TGI: > 100 µM
[2]
  TGI: > 100 µM
[46]
  TGI: > 100 µM
[3]
  TGI: > 100 µM
[4]
  TGI: > 100 µM
[5]
  TGI: > 100 µM
[48]
  TGI: > 100 µM
[49]
  TGI: > 100 µM
[6]
  TGI: > 100 µM
[7]
  TGI: > 100 µM
[50]
  TGI: > 100 µM
[8]
  TGI: > 100 µM
[9]
  TGI: > 100 µM
[10]
  TGI: > 100 µM
[11]
  TGI: > 100 µM
[12]
  TGI: > 100 µM
[13]
  TGI: > 100 µM
[14]
  TGI: > 100 µM
[15]
  TGI: > 100 µM
[51]
  TGI: > 100 µM
[16]
  TGI: > 100 µM
[52]
  TGI: > 100 µM
[17]
  TGI: > 100 µM
[18]
  TGI: > 100 µM
[19]
  TGI: > 100 µM
[20]
  TGI: > 100 µM
[21]
  TGI: > 100 µM
[22]
  TGI: > 100 µM
[23]
  TGI: > 100 µM
[24]
  TGI: > 100 µM
[53]
  TGI: > 100 µM
[25]
  TGI: > 100 µM
[26]
  TGI: > 100 µM
[27]
  TGI: > 100 µM
[58]
  TGI: > 100 µM
[28]
  TGI: > 100 µM
[29]
  TGI: > 100 µM
[30]
  TGI: > 100 µM
[31]
  TGI: > 100 µM
[32]
  TGI: > 100 µM
[33]
  TGI: > 100 µM
[54]
  TGI: > 100 µM
[35]
  TGI: > 100 µM
[36]
  TGI: > 100 µM
[55]
  TGI: > 100 µM
[37]
  TGI: > 100 µM
[38]
  TGI: > 100 µM
[39]
  TGI: > 100 µM
[40]
  TGI: > 100 µM
[41]
  TGI: > 100 µM
[42]
  TGI: > 100 µM
[43]
  TGI: > 100 µM
